Assay results: patent US20220098320A1, “SENOLYTIC CAR-T CELLS TARGETING UPAR, A CELL SURFACE AND SECRETED […]” (MEMORIAL SLOAN KETTERING CANCER CENTER, priority 2019, published 2022)

Columns and labels:
[1] = test system: suPAR; assay: bleomycin-induced lung fibrosis: plasma suPAR; type: in vivo, NSG mice; conditions: intratracheal bleomycin; FIGS. 9C-9E
Method: (§1) Detection of suPAR levels. suPAR levels from cell culture supernatant of murine plasma were evaluated by enzyme-linked immunosorbent assay (ELISA) according to the manufacturer's protocol (R&D systems, DY531 (mouse) or DY807 (human)).

[2] = test system: suPAR; assay: CCl4-induced liver fibrosis: plasma suPAR; type: in vivo; conditions: CCl4-treated mice vs untreated controls; FIGS. 5B and 16D
Method: In vivo induction of liver fibrosis. C57BL/6J mice were treated twice a week with 12 consecutive intraperitoneal (i.p.) injections of 1 ml/kg carbon tetrachloride (CCl4) to induce liver fibrosis. For murine CAR T cell studies, cyclophosphamide (200 mg/kg) was administered 24 hours before T cell injection. Mice received 3×10^6 CAR^+ T cells or untransduced T cells and CCl4 was continuously administered at the same dose and interval after T cell injection until day 20 post CAR injection. Animals were sacrificed 48-72 h after the last CCl4 injection. NSG mice were treated twice a week with 8 consecutive i.p. injections of 1 ml/kg CCl4 to induce liver fibrosis. For human CAR T cell studies, mice received 0.5×10^6 CAR T cells or untransduced T cells and CCl4 was continued once a week after CAR T injection until day 10 post CAR administration, when animals were sacrificed 48-72 h after the last CCl4 injection. Venous blood was collected by facial vein puncture.
as §1

[3] = test system: suPAR; assay: doxorubicin-induced senescence in vivo: plasma suPAR by ELISA; design: species or system C57BL/6J mice; conditions: doxorubicin i.p. day 0 and day 10; blood at days 10 and 20; FIG. 7D
Method: In vivo induction of doxorubicin-Induced senescence. […] Venous blood was collected by facial vein puncture at days 10 and 20 after initial doxorubicin administration. Detection of suPAR levels. suPAR levels from cell culture supernatant of murine plasma were evaluated by enzyme-linked immunosorbent assay (ELISA) according to the manufacturer's protocol (R&D systems, DY531 (mouse) or DY807 (human)).

bleomycin
plasma levels of suPAR [1]: Higher levels of suPAR

ClC(Cl)(Cl)Cl [CCl4, carbon tetrachloride]
plasma suPAR levels [2]: elevation of plasma suPAR levels relative to untreated controls

COc1cccc2c1C(=O)c1c(O)c3c(c(O)c1C2=O)C[C@@](O)(C(=O)CO)C[C@@H]3O[C@H]1C[C@H](N)[C@H](O)[C@H](C)O1 [doxorubicin]
plasma levels of suPAR [3]: time-dependent and dose-dependent correlation with the plasma levels of suPAR
